Reference: patent publication US12458612B2, “Combination therapy comprising compounds of formula (I) and GLP-1 receptor agonists” (GENFIT, priority 2019, dated 2025)

Tests used:
NASH-B6 mice = test: Body weight, adiposity and food intake, 8 weeks in NASH-B6 mice (Example 6); assay type: in vivo; settings: liraglutide 0.02 mg/kg/day, 8 weeks (FIG. 13B)
Procedure: Male C57BL/6NTac mice (Taconic, USA) were fed with the GAN diet (D09100310 Research Diet) 31 weeks prior to study start to induce NASH pathology (NASH-B6 model). Prior to treatment, blood was collected by retro-orbital sinus puncture after a 6 h-fasting period to measure plasma ALT, AST, TIMP Metallopeptidase Inhibitor 1 (TIMP1, a surrogate marker of liver fibrosis). Blood glucose was measured directly from the tail vein using a WellionVet glucometer (CALEA) after a 6 h-fasting period. Ketone bodies (KB) was also measured directly from the tail vein using a FreeStyle Optium Neo ketometer. Mice were randomized into treatment groups (n=10/group) based on body weight, glycemia, ketonemia and plasma ALT, AST and TIMP1. They received either vehicles, elafibranor (3 mg/kg/day, per os), liraglutide (0.01 mg/kg, BID, SC) or both elafibranor and liraglutide for 8 weeks. To avoid GLP-1 receptor agonist-induced hypophagia, an up-titration protocol was applied for liraglutide during the first 3 weeks of treatment (starting with 0.001 mg/kg BID). Vehicle-dosed chow-fed mice served as additional controls (R03-10 U8211G10R, SAFE).
Body weight and food intake were monitored each day during the treatment period. On the last day of treatment, serum samples were obtained after retro-orbital sinus puncture blood sampling and mice were sacrificed. […]

DIO-NASH mice [1] = test: Hepatic triglyceride content, 40 days in DIO-NASH mice (Example 1); assay type: in vivo; settings: ELA 10 mg/kg/day, SEMA 10 nmol/kg/day, 40 days (FIG. 3)
Procedure: (§1) The effects of elafibranor alone, semaglutide alone and the combination of both were assessed in DIO-NASH mice (C57BL6JRj mice fed with a Amylin Liver NASH Model diet (AMLN) (Research Diet, 40% fat (18% trans-fat), 40% carbohydrate (20% fructose), and 2% cholesterol) (36 weeks prior to study start). 41 weeks old male DIO-NASH mice were fed a vehicule (n=12), or vehicule supplemented with elafibranor (10 mg/kg/day), or semaglutide alone (10 nmol/kg) (titration to final dose over 5 days using increments of 0.08 mg/mL) or in combination (n=12 per group).
On the last day of treatment, plasma samples were obtained after cardiac puncture blood sampling and mice were sacrificed. The liver was rapidly excised for biochemical and histological analyses.
Approximately 100 mg of frozen liver tissue were homogenized with a tissue homogenizer (Precellys®24, Bertin Technologies, France) in 150 mM NaCl buffer, containing 15.4 mM NaN3. Lipid fractions in homogenates were extracted with chloroform—methanol (2:1, v/v) followed by measurement of the triglycerides (Biolabo cat #80019).

DIO-NASH mice [2] = test: Glycemia (plasma glucose), 40 days in DIO-NASH mice (Example 1); assay type: in vivo; settings: ELA 10 mg/kg/day, SEMA 10 nmol/kg/day, 40 days (FIG. 4)
Procedure: as §1
(§2) Sampling from tail vein were done during the protocol for, blood glucose, plasma insulin, alanine transaminase, aspartate transaminase, triglycerides, total cholesterol dosages.
The plasma glucose level was measured using the Randox kit for Daytona automate (Randox, cat #GL 3815) according to the manufacturer's recommendations. This method was based on a colorimetric assay without any deproteinization of the sample. Briefly, glucose oxidase digestion of the sample led to hydrogen peroxide synthesis. In the presence of phenol and 4-aminophenazone, the hydrogen peroxide was catalyzed by a peroxidase and formed a dye: the quinoneimin. The coloration intensity was directly proportional to the glucose concentration and was measured at 505 nm. Results were expressed in mg/dL.

DIO-NASH mice [3] = test: Insulinemia (plasma insulin), 40 days in DIO-NASH mice (Example 1); assay type: in vivo; settings: ELA 10 mg/kg/day, SEMA 10 nmol/kg/day, 40 days (FIG. 5)
Procedure: as §1, §2
The plasmatic insulin was measured using a solid phase two-site enzyme immunoassay from Crystal Chem Inc. (cat #90010). Briefly, 95 μL of guinea-pig anti-insulin serum and 5 μL of diluted sample (or standard) were dispensed per well into a 96-well plate. […] The reaction was then stopped by adding 100 μL of stop solution and absorbance was immediately measured at 450 nm (subtracting wave length: 630 nm). The intensity of the coloration was proportional to the amount of insulin initially present in the sample and was calculated using a standard serum. […]

DIO-NASH mice [4] = test: Histological assessment of NASH, 12 weeks in DIO-NASH mice (Example 3); assay type: in vivo; settings: monotherapy low dose ELA 10 mg/kg/day or SEMA 0.3 nmol/kg/day
Procedure: Male C57BL/6JRj mice were fed with the AMLN diet 35 weeks prior to study start (DIO-NASH model). Mice with biopsy confirmed steatosis (score ≥2) and fibrosis (score ≥1) were randomized into treatment groups (n=12-14 per group). Mice received either vehicles, elafibranor (10 mg/kg/day, per os), semaglutide (0.3 nmol/kg/day, SC) or both elafibranor and semaglutide for 12 weeks. Suboptimal drug doses were used in this study. To avoid SEMA-induced hypophagia, an up-titration protocol was applied during the first 3 weeks of treatment.
On the last day of treatment, plasma samples were obtained after cardiac puncture blood sampling and mice were sacrificed. The liver was rapidly excised for histology and biochemical and transcriptomic analyses.
Liver sections were prepared and stained with hematoxylin eosin safranin (HES) as described in Example 1. The histological features of NASH (steatosis, ballooning, lobular inflammation and fibrosis) were assessed using the NASH Clinical Research Network Scoring System by operators blinded to the experimental groups (Kleiner 2005, Brunt 1999). Steatosis score, activity index (hepatocyte ballooning+lobular inflammation) and NAFLD activity score (NAS) were calculated. Number of inflammatory foci was counted per field using a 200× magnification.

[5] = system: TNFα secretion in LPS-activated macrophages (THP-1); test: TNFα secretion in LPS-activated THP-1 macrophages, combination matrix, HTRF (Example 4); assay type: cell-based, Human; settings: GLP-1 receptor agonist alone; LPS-activated THP1 macrophages (FIGS. 11A-B)
Procedure: Human_THP-1 monocytes were seeded at a density of 25,000 cells per well in 384-well plate in RPMI1640 (Gibco, 21875) supplemented with 10% FBS, 1% Penicillin-streptomycin (Gibco, 15140122) and 25 mM Hepes (Gibco, 15630080) and differentiated into macrophages using PMA (Phorbol 12-myristate 13-acetate, Sigma, P8139) at the final concentration of 100 ng/ml for 24 hours.
A 2 component combination matrix was prepared. ELA and GLP-1 receptor agonists stocks were serially diluted in DMSO in 3-points series in a row (ELA) and a 8-points series in a column of a 96-well plate for GLP1RA. Subsequently, the 3×8 combination matrix was generated by 1:1 mixing of all single agent concentrations.
After 24 hrs with PMA, medium was removed, and replaced by serum free RPMI. […]
Synergism between compounds was determined using the Excess Over Bliss (EOB) method.
The values obtained in the TNFα HTRF assay were first transformed into percentage inhibitions over LPS control. Then, using these percentage inhibitions, EOB were calculated. Expected Bliss additivism score (E) was firstly determined by the equation: E=(A+B)−(A×B) where A and B are the percentage inhibition of elafibranor (A) and GLP-1 analogue (B) at a given dose.
The total Bliss score was calculated by addition of all EOB.

DIO-NASH mice [6] = test: Plasma ALT and CRP in DIO-NASH mice, low/high dose semaglutide (Example 7); assay type: in vivo
Procedure: (§3) The effects of elafibranor alone, semaglutide (low and high doses) alone and their combination were assessed in DIO-NASH mice (C57BL6JRj mice fed with a Amylin Liver NASH Model diet (AMLN) (Research Diet, 40% fat (18% trans-fat), 40% carbohydrate (20% fructose), and 2% cholesterol) (35 weeks prior to study start). Mice with biopsy confirmed steatosis (score≥2) and fibrosis (score≥1) were randomized into treatment groups (n=12 per group). Mice received either vehicles, elafibranor (10 mg/kg/day, per os), low-dose semaglutide (0.3 nmol/kg/day, SC), high-dose semaglutide (10 nmol/kg/day, SC) or elafibranor (10 mg/kg/day) and semaglutide (0.3 nmol/kg/day) in combination.
On the last treatment day, plasma samples were obtained after cardiac puncture blood sampling and mice were sacrificed. The liver was rapidly excised for transcriptomic analyses.
Alanine aminotransferase (ALT) level was measured using Cobas™ C-501 autoanalyzer according to the manufacturer's instructions. C-reactive protein (CRP) concentration was measured by ELISA (Mouse C-Reactive Protein/CRP Immunoassay MCRP00, R&D Systems).

DIO-NASH mice [7] = test: Liver transcriptomic and gene ontology analysis in DIO-NASH mice (Example 7); assay type: in vivo
Procedure: as §3, with “combination. […]” for “combination.”
Total RNA was isolated from mice livers using Nucleospin® 96 RNA kit (Macherey Nagel) following manufacturer's instructions. […] The parameters used are an end minimum quality level of 25 and a minimum read length of 50. The unaligned reads were aligned to the Mus musculus mm10 reference genome using the software STAR version 2.5.3. […] Briefly, the count matrix produced by FeatureCounts was analyzed by the DESeqDataSetFromMatrix( ) function followed by the DEseq( ) function from the DESeq2 library. […]
Each metascape analysis was exported as Excel file. The files were imported in R V using the read_excel function from the readxl library (version 1.3.1). […]

Row | Compound | hypophagia (energy consumption) (NASH-B6 mice) | liver fat / hepatic triglyceride content (DIO-NASH mice [1]) | glycemia (DIO-NASH mice [2]) | insulinemia (DIO-NASH mice [3]) | mice showing NAS reduction beyond 1 stage (DIO-NASH mice [4]) | maximal effect, TNFα inhibition [5] [%] | decrease of plasma CRP relative to AMLN-fed vehicle group (DIO-NASH mice [6]; high-dose semaglutide 10 nmol/kg/day SC (FIG. 18)) [%] | effect on plasma ALT (DIO-NASH mice [6]; low dose semaglutide 0.3 nmol/kg/day SC (FIG. 17)) | effect on plasma CRP (DIO-NASH mice [6]; low-dose semaglutide 0.3 nmol/kg/day SC (FIG. 18)) | hepatic gene signature (gene ontology: inflammatory response, cytokine production, immune cell activation and migration) (DIO-NASH mice [7]; high-dose semaglutide 10 nmol/kg/day (FIG. 19)) | hepatic gene signature (gene ontology: inflammatory pathways) (DIO-NASH mice [7]; low-dose SEMA 0.3 nmol/kg/day (FIG. 19))
1 | CCCCCCCCCCCCCCCC(=O)N[C@@H](CCC(=O)NCCCC[C@H](NC(=O)[C@H](C)NC(=O)[C@H](C)NC(=O)[C@H](CCC(N)=O)NC(=O)CNC(=O)[C@H](CCC(=O)O)NC(=O)[C@H](CC(C)C)NC(=O)[C@H](Cc1ccc(O)cc1)NC(=O)[C@H](CO)NC(=O)[C@H](CO)NC(=O)[C@@H](NC(=O)[C@H](CC(=O)O)NC(=O)[C@H](CO)NC(=O)[C@@H](NC(=O)[C@H](Cc1ccccc1)NC(=O)[C@@H](NC(=O)CNC(=O)[C@H](CCC(=O)O)NC(=O)[C@H](C)NC(=O)[C@@H](N)Cc1cnc[nH]1)[C@@H](C)O)[C@@H](C)O)C(C)C)C(=O)N[C@@H](CCC(=O)O)C(=O)N[C@@H](Cc1ccccc1)C(=O)N[C@H](C(=O)N[C@@H](C)C(=O)N[C@@H](Cc1c[nH]c2ccccc12)C(=O)N[C@@H](CC(C)C)C(=O)N[C@H](C(=O)N[C@@H](CCCNC(=N)N)C(=O)NCC(=O)N[C@@H](CCCNC(=N)N)C(=O)NCC(=O)O)C(C)C)[C@@H](C)CC)C(=O)O [liraglutide] | no hypophagia effect | – | – | – | – | – | – | – | – | – | –
2 | semaglutide: commercially available GLP-1 receptor agonist | – | significant beneficial effect | no beneficial effect | significant beneficial effect | None of the mice | 29 | 43 | inefficient | inefficient | reverted the pathological signature | inefficient
